Results published in patent US20120322102A1, “GENETICALLY ENGINEERED HERBICIDE RESISTANT ALGAE” (SAPPHIRE ENERGY, INC., priority 2008, published 2012).
Read-outs that look alike come from different tables or passages of the source.

Columns and labels:
[1] = system: Wildtype Chlamydomonas reinhardtii; conditions: cited from earlier work; for Complete Growth inhibition: concentration at which growth is inhibited; for IC50: Vartak and Sujata 1997/1999, read-out: I50
[2] = system: Resistant Chlamydomonas reinhardtii; conditions: cited from earlier work; for Highest tolerated concentration: highest concentration an isolated resistant strain can tolerate; for IC50: Vartak and Sujata 1997/1999, read-out: I50
[3] = system: Wildtype Chlamydomonas reinhardtii; experiment: Herbicide concentration at which growth of wild type algae is inhibited (chart); format: cell-based; conditions: unpublished results
Excerpt: (§1) Provided below is an exemplary chart of herbicide concentrations that can be used in the embodiments disclosed herein. The concentrations provided are the concentration that growth of the wild type algae is inhibited at, and the highest concentrations that an isolated resistant strain of Chlamydomonas reinhardtii can tolerate. One of skill in the art would be able to determine the proper concentration of the herbicides listed in the chart without undue experimentation.

[4] = system: Resistant Chlamydomonas reinhardtii; experiment: Highest herbicide concentration an isolated resistant strain can tolerate (chart); format: cell-based; conditions: unpublished results
Excerpt: as §1

[5] = system: atpA-EPSPS (G163A/A252T) engineered C. reinhardtii strain; experiment: Growth on HSM plates with increasing amounts of glyphosate; format: cell-based, Chlamydomonas reinhardtii; conditions: 0-2 mM glyphosate, chloroplast atpA-EPSPS (G163A/A252T) strain
Experimental: (§2) To characterize the effect of expressing the double mutated C. reinhardtii EPSPS directly in the chloroplast, engineered strains, along with wild type C. reinhardtii cc 1690 (mt+), were plated on HSM plates with increasing amounts of glyphosate (0-2 mM). Wild type C. reinhardtii cc1690 was sensitive to approximately 1 mM glyphosate whereas the psbD-EPSPS (G163A/A252T) and atpA-EPSPS (G163A/A252T) engineered strains were sensitive at approximately 1.8 and 1.6 mM glyphosate, respectively.

[6] = system: psbD-EPSPS (G163A/A252T) engineered C. reinhardtii strain; experiment: as above; format: cell-based, Chlamydomonas reinhardtii; conditions: 0-2 mM glyphosate, chloroplast psbD-EPSPS (G163A/A252T) strain
Experimental: as §2

[7] = system: wild type C. reinhardtii cc1690 (mt+); experiment: as above; format: cell-based, Chlamydomonas reinhardtii; conditions: 0-2 mM glyphosate
Experimental: as §2

In the case of `COc1nc(C)nc(NC(=O)NS(=O)(=O)c2ccccc2Cl)n1` [Chlorsulfuron], the “Complete Growth inhibition” value ([1]; Winder and Spalding 1988) is listed as 100 µM and the Highest tolerated concentration ([2]; Winder and Spalding 1988) is listed as 1000 µM.
In the case of `CCNc1nc(Cl)nc(NC(C)C)n1` [Atrazine], the “Complete Growth inhibition” value ([1]; Galloway and Mets 1984) is given as 5 µM and the Highest tolerated concentration ([2]; Galloway and Mets 1984) is given as 100 µM.
In the case of `C[n+]1ccc(-c2cc[n+](C)cc2)cc1` [Paraquat], the IC50 [1] is listed as 700 nM and the IC50 [2] is listed as 54000 nM.
In the case of `O=C(O)CNCP(=O)(O)O` [Glyphosate], the “Complete Growth inhibition” value [3] is reported as 1 mM, the “Complete Growth inhibition” value [4] is reported as 5 mM and the “glyphosate concentration the strain was sensitive to” value [5] is reported as about 1.6 mM. The “glyphosate concentration the strain was sensitive to” value [6] was “approximately 1.8 mM” and the “glyphosate concentration the strain was sensitive to” value [7] was “approximately 1 mM”.
In the case of `CNc1cnn(-c2cccc(C(F)(F)F)c2)c(=O)c1Cl` [Norflurazon], the IC50 [1] is listed as 1100 nM and the IC50 [2] is listed as 3600 nM.
For `CN(C)C(=O)Nc1ccc(Cl)c(Cl)c1` [DCMU, 3-(3,4-dichlorophenyl)-1,1-dimethylurea], the “Complete Growth inhibition” value ([1]; Galloway and Mets 1984) is given as 2 µM and the Highest tolerated concentration ([2]; Galloway and Mets 1984) is given as 200 µM.
In the case of `CCC(C)n1c(=O)[nH]c(C)c(Br)c1=O` (stereo not shown) [Bromacil], the “Complete Growth inhibition” value ([1]; Galloway and Mets 1984) is listed as 2 µM and the Highest tolerated concentration ([2]; Galloway and Mets 1984) is listed as 50 µM.
For `CC(C)C1(C)N=C(c2nc3ccccc3cc2C(=O)O)NC1=O` (stereo not shown) [Imazaquin], the “Complete Growth inhibition” value ([1]; Winder and Spalding 1988) is given as 1000 µM and the Highest tolerated concentration ([2]; Winder and Spalding 1988) is given as 10000 µM.
